Reference: PubChem BioAssay AID1919003 (Molecular Pharmacology Branch, DTP, NCI, 2023)

System: 786-0 complex spheroids with HUVEC/MSC, growth % test/control
Experiment: Anticancer human tumor 786-0 cell line growth inhibition [AhR];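 further: compound exposure lasted seven days before the read-out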
Details: for IC50: curve of first compound; for viability, T/C: stronger effect = lower value
Excerpt: Multicellular complex tumor spheroid response to aryl hydrocarbon receptor antagonists in combination with a variety of drugs and investigational agents in selected tumor cell lines
The current study was undertaken to assess response to aryl hydrocarbon receptor antagonists in combination with standard-of-care drugs and investigational agents in solid tumor complex spheroid models. Complex spheroids include a stromal component modeled by human endothelial cells (HUVEC) and fibroblasts modeled by human mesenchymal stem cells (MSCs). The concentration ranges selected for each drug and investigational agent were based upon clinically achievable concentrations if the clinical Cmax of the agent was known.
Compounds. The drugs and investigational agents: BAY 2416964 (NSC825713), GNF351 (NSC835774), CH-223191 (NSC835775), CPI-455 (NSC825282), aza-TdCyd (NSC777586), decitabine (NSC127716), belinostat (NSC758774), entinostat (NSC756642), pevonedistat (NSC761192), tazemetostat (NSC777109), talazoparib (NSC765396), olaparib (NSC753686), selinexor (NSC780203), nedisertib (M3814, NSC802822), bortezomib (NSC756655), venetoclax (NSC766270), doxorubicin (NSC123127), elimusertib (BAY189344, NSC800525), ceralasertib (AZD6738, NSC777638), TAK-243 (NSC785004), alisertib (NSC759677), etoposide (NSC141540), topotecan (NSC609699), eribulin (NSC707389), gemcitabine (NSC613327), carboplatin (NSC241240), cisplatin (NSC119875), and SN-38 (NSC673596) were obtained from the National Cancer Institute (NCI) Developmental Therapeutics Program Chemical Repository (32). The FDA-approved anticancer drug set is available from the Developmental Therapeutics Program at https://dtp.cancer.gov/organization/dscb/obtaining/available plates.htm. […] The stock solutions were prepared in dimethyl sulfoxide (DMSO, Sigma-Aldrich, St. Louis, MO, cat. D2650), except for the platinum compounds which were prepared in saline (Quality Biological, Gaithersburg, MD, cat. 114-055-101), at 800-fold the tested concentration and stored at -70 degrees C prior to their use. All drugs and investigational agents were tested over a range starting from a high concentration at or near the clinical Cmax and decreasing in half-log increments. If the clinical Cmax for an agent had not been determined, the highest concentration tested was 10 microM (Table 1).
Cell Culture. All cells were maintained in an incubator at 37 degrees C and 5% CO2 with 95% humidity. The PDC lines were cultured according to standard operating procedures established by the NCI PDMR (https://pdmr.cancer.gov). Briefly, all PDCs were thawed and cultured in Matrigel-coated flasks prepared with a working solution of 1X Ham's F-12 nutrient mix, without supplementation (Invitrogen, Waltham, MA, cat. 11765054), 100 U/mL penicillin-streptomycin (Invitrogen, cat. 15140122), and 2.5% Matrigel (Corning Inc., Corning, NY, cat. 354248) for the first three passages. All PDCs were cultured in complete DMEM/F-12 media containing advanced DMEM/F-12 (Invitrogen, cat. 12634028), 4.9% defined fetal bovine serum, heat inactivated (HyClone Laboratories Inc., Logan, UT, cat. SH30070.03HI), 389 ng/mL hydrocortisone (Sigma-Aldrich, cat. H4001), 9.7 ng/mL human EGF recombinant protein (Invitrogen, cat. PHG0313), 23.4 microg/mL adenine (Sigma-Aldrich, cat. A2786), 97.3 U/mL penicillin-streptomycin (Invitrogen, cat. 15140122), 1.9 mM L-glutamine (Invitrogen, cat. 25030081), and 9.7 microM Y-27632 dihydrochloride (Tocris Bioscience, Bristol, United Kingdom, cat. 1254). The PDCs were cultured in complete DMEM/F12 media without 10 microM Y-27632 dihydrochloride for at least two passages prior to the screen. The established cell lines NCI-H1341 and […] were cultured in DMEM/F-12, HEPES (Invitrogen, cat. 11330032), 5% defined fetal bovine serum (HyClone Laboratories Inc., cat. SH30070.03), ITS premix universal culture supplement [insulin (5 microg/mL), transferrin (5 microg/mL), and selenious acid (5 ng/mL)] […]

[1] = second compound 0.1 µM, first compound 0.0316 µM
[2] = second compound 0.1 µM, first compound 0.1 µM
[3] = second compound 0.1 µM, first compound 0.316 µM
[4] = second compound 0.1 µM, first compound 1 µM
[5] = second compound 0.1 µM, first compound 3.16 µM
[6] = second compound 0.1 µM, first compound 10 µM
[7] = second compound 0.316 µM, first compound 0.0316 µM
[8] = second compound 0.316 µM, first compound 0.1 µM
[9] = second compound 0.316 µM, first compound 0.316 µM
[10] = second compound 0.316 µM, first compound 1 µM
[11] = second compound 0.316 µM, first compound 3.16 µM
[12] = second compound 0.316 µM, first compound 10 µM
[13] = second compound 1 µM, first compound 0.0316 µM
[14] = second compound 1 µM, first compound 0.1 µM
[15] = second compound 1 µM, first compound 0.316 µM
[16] = second compound 1 µM, first compound 1 µM
[17] = second compound 1 µM, first compound 3.16 µM
[18] = second compound 1 µM, first compound 10 µM
[19] = second compound 3.16 µM, first compound 0.0316 µM
[20] = second compound 3.16 µM, first compound 0.1 µM
[21] = second compound 3.16 µM, first compound 0.316 µM
[22] = second compound 3.16 µM, first compound 1 µM
[23] = second compound 3.16 µM, first compound 3.16 µM
[24] = second compound 3.16 µM, first compound 10 µM
[25] = second compound 10 µM, first compound 0.0316 µM
[26] = second compound 10 µM, first compound 0.1 µM
[27] = second compound 10 µM, first compound 0.316 µM
[28] = second compound 10 µM, first compound 1 µM
[29] = second compound 10 µM, first compound 3.16 µM
[30] = second compound 10 µM, first compound 10 µM

CC1(C)CCC(CN2CCN(c3ccc(C(=O)NS(=O)(=O)c4ccc(NCC5CCOCC5)c([N+](=O)[O-])c4)c(Oc4cnc5[nH]ccc5c4)c3)CC2)=C(c2ccc(Cl)cc2)C1 + CC(CO)NC(=O)c1cc(-c2ccc(Cl)cc2)nn(-c2cnn(C)c2)c1=O
IC50 (second compound 0.1 µM): > 10 µM | IC50 (second compound 0.316 µM): > 10 µM | IC50 (second compound 1 µM): > 10 µM | IC50 (second compound 3.16 µM): > 10 µM | IC50 (second compound 10 µM): > 10 µM | viability, T/C [1]: 109% | viability, T/C [2]: 101% | viability, T/C [3]: 106% | viability, T/C [4]: 99.9% | viability, T/C [5]: 90.7% | viability, T/C [6]: 77.7% | viability, T/C [7]: 105% | viability, T/C [8]: 115% | viability, T/C [9]: 101% | viability, T/C [10]: 98.4% | viability, T/C [11]: 91.3% | viability, T/C [12]: 81.3% | viability, T/C [13]: 105% | viability, T/C [14]: 103% | viability, T/C [15]: 106% | viability, T/C [16]: 97.9% | viability, T/C [17]: 104% | viability, T/C [18]: 80.8% | viability, T/C [19]: 116% | viability, T/C [20]: 111% | viability, T/C [21]: 104% | viability, T/C [22]: 96.4% | viability, T/C [23]: 82.9% | viability, T/C [24]: 82.5% | viability, T/C [25]: 114% | viability, T/C [26]: 135% | viability, T/C [27]: 109% | viability, T/C [28]: 122% | viability, T/C [29]: 98.4% | viability, T/C [30]: 86.4%

COc1ccc([C@@H](O)c2cc(-c3ncnc4cc(N5CCOCC5)ccc34)c(F)cc2Cl)nn1 + Cc1ccccc1N=Nc1ccc(NC(=O)c2ccnn2C)c(C)c1
IC50 (second compound 0.1 µM): > 10 µM | IC50 (second compound 0.316 µM): > 10 µM | IC50 (second compound 1 µM): > 10 µM | IC50 (second compound 3.16 µM): > 10 µM | IC50 (second compound 10 µM): 9.48 µM | viability, T/C [1]: 90.6% | viability, T/C [2]: 96% | viability, T/C [3]: 99.4% | viability, T/C [4]: 102% | viability, T/C [5]: 102% | viability, T/C [6]: 79.9% | viability, T/C [7]: 97.6% | viability, T/C [8]: 102% | viability, T/C [9]: 99.2% | viability, T/C [10]: 100% | viability, T/C [11]: 106% | viability, T/C [12]: 87.1% | viability, T/C [13]: 86.4% | viability, T/C [14]: 93.3% | viability, T/C [15]: 96% | viability, T/C [16]: 105% | viability, T/C [17]: 97.1% | viability, T/C [18]: 77.4% | viability, T/C [19]: 84.8% | viability, T/C [20]: 87.1% | viability, T/C [21]: 82.9% | viability, T/C [22]: 84.1% | viability, T/C [23]: 89.3% | viability, T/C [24]: 63.9% | viability, T/C [25]: 96.9% | viability, T/C [26]: 90.2% | viability, T/C [27]: 81.9% | viability, T/C [28]: 86.1% | viability, T/C [29]: 72.8% | viability, T/C [30]: 48.2%

Nc1ncn(C2CC(O)C(CO)O2)c(=O)n1 (stereo not given) + Cc1ccccc1N=Nc1ccc(NC(=O)c2ccnn2C)c(C)c1
IC50 (second compound 0.1 µM): > 1 µM | IC50 (second compound 0.316 µM): > 1 µM | IC50 (second compound 1 µM): > 1 µM | IC50 (second compound 3.16 µM): > 1 µM | IC50 (second compound 10 µM): > 1 µM | viability, T/C (second compound 0.1 µM, first compound 0.00316 µM): 103% | viability, T/C (second compound 0.1 µM, first compound 0.01 µM): 114% | viability, T/C [1]: 105% | viability, T/C [2]: 101% | viability, T/C [3]: 98.3% | viability, T/C [4]: 90.6% | viability, T/C (second compound 0.316 µM, first compound 0.00316 µM): 105% | viability, T/C (second compound 0.316 µM, first compound 0.01 µM): 104% | viability, T/C [7]: 106% | viability, T/C [8]: 99.5% | viability, T/C [9]: 96.6% | viability, T/C [10]: 92.9% | viability, T/C (second compound 1 µM, first compound 0.00316 µM): 106% | viability, T/C (second compound 1 µM, first compound 0.01 µM): 112% | viability, T/C [13]: 105% | viability, T/C [14]: 104% | viability, T/C [15]: 95.2% | viability, T/C [16]: 94.5% | viability, T/C (second compound 3.16 µM, first compound 0.00316 µM): 104% | viability, T/C (second compound 3.16 µM, first compound 0.01 µM): 102% | viability, T/C [19]: 100% | viability, T/C [20]: 94.9% | viability, T/C [21]: 92.8% | viability, T/C [22]: 89.7% | viability, T/C (second compound 10 µM, first compound 0.00316 µM): 93.4% | viability, T/C (second compound 10 µM, first compound 0.01 µM): 95.3% | viability, T/C [25]: 91.3% | viability, T/C [26]: 87.1% | viability, T/C [27]: 83.2% | viability, T/C [28]: 77.2%
